In patent EP4596574A1, “GLP-1/GCG/GIP TRIPLE-RECEPTOR AGONIST AND USE THEREOF” (Sunshine Lake Pharma Co., Ltd., priority 2022, dated 2024):
Starred links: 1 amine or outer side, 2 acyl side, 3 side chain; linkers in the order of their positions; H or OH if unused. Non-standard residues stand in square brackets, D forms with d. Residues, ends and D or L forms follow the SMILES beside them. Groups on a side chain read outwards from the residue. *: point of attachment. C18 diacid = O=C(O)CCCCCCCCCCCCCCCCC(=O)*; αMePhe(2-F) = C[C@](N)(Cc1ccccc1F)C(=O)O; γGlu = O=C(O)[C@H](CCC(=O)[*:2])N[*:1]; AEEA = NCCOCCOCC(=O)O; Aib = CC(C)(N)C(=O)O

Assays:
Format in all cases: cell-based
[1] = target: T1, GLP-1R (Homo sapiens, UniProt P43220); test: In vitro cell activity, cAMP production in HEK293 cells expressing GLP-1R; details: HEK293-GLP-1R cells, cAMP; read-out: GLP-1R (EC50)
T1 construct: expressed in transfected cells; host or cells: HEK293 (HEK293-GLP-1R)
Outline: (§1)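 cAMP output read as 665/620 nm HTRF ratio after adding cAMP-d2 plus anti-cAMP cryptate and incubating 1 h at room temperature in the dark or overnight at 4 °C. Cells: HEK293 expressing human GLP-1R or GCGR, plated from a 4×10^5 cells/mL suspension. Four-parameter fit gives EC50.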

[2] = target: T2, GCGR (Homo sapiens, UniProt P47871); test: In vitro cell activity, cAMP production in HEK293 cells expressing GCGR; details: HEK293-GCGR cells, cAMP; read-out: GCGR (EC50)
T2 construct: expressed in transfected cells; host or cells: HEK293 (HEK293-GCGR)
Outline: as §1

[3] = target: T3, GIPR (Homo sapiens, UniProt P48546); test: In vitro cell activity, cAMP production in HEK293 cells expressing GIPR; details: HEK293-GIPR cells, cAMP; read-out: GIPR (EC50)
T3 construct: expressed in transfected cells; host or cells: HEK293 (HEK293-GIPR)
T3 sequence (P48546 22-466): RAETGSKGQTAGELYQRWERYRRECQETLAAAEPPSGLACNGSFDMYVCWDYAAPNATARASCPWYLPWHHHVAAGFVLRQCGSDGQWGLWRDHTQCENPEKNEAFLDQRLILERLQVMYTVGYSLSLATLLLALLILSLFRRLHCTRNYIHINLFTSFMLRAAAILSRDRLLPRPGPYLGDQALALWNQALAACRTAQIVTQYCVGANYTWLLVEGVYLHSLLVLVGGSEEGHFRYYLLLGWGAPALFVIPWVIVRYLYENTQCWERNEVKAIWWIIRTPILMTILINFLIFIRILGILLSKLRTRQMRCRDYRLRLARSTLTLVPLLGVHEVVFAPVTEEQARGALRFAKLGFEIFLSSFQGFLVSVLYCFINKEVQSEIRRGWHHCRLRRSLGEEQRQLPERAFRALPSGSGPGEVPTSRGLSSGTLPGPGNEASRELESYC
Outline: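 HEK293 cells expressing human GIPR, thawed and diluted to 4×10^5 cells/mL, are stimulated with test compound. cAMP is measured by HTRF competition between cAMP-d2 and anti-cAMP cryptate. EC50 comes from a four-parameter nonlinear fit of signal ratio against concentration.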

T2 sequence (P47871 26-477, species assumed): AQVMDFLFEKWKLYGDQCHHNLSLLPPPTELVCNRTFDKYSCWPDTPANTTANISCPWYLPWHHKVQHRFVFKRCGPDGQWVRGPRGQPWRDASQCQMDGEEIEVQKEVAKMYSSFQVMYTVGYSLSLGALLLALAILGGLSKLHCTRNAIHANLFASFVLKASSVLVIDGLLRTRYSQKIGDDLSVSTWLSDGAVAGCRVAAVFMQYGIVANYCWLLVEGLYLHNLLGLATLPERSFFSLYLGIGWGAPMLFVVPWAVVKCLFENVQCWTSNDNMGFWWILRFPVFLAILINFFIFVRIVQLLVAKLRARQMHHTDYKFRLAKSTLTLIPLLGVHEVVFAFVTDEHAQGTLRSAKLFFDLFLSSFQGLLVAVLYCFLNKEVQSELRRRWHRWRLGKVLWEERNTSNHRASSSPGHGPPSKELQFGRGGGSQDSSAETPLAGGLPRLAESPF
T1 sequence (P43220 24-463, species assumed): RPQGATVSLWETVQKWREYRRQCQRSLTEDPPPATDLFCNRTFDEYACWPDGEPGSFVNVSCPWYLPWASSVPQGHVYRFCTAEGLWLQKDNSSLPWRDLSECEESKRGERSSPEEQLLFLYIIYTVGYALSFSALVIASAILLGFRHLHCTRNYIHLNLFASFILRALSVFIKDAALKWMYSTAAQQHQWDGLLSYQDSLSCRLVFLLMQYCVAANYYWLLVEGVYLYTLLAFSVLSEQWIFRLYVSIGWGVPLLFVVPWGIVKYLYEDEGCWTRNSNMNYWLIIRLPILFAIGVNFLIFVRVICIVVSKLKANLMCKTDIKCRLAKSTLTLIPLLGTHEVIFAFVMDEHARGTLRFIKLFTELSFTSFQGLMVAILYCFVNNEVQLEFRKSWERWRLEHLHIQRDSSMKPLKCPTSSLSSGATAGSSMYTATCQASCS

SMILES | EC50 [1] | EC50 [2] | EC50 [3]
CC[C@H](C)[C@H](NC(=O)[C@H](CO)NC(=O)[C@H](Cc1ccc(O)cc1)NC(=O)[C@H](CC(=O)O)NC(=O)[C@H](CO)NC(=O)[C@@H](NC(=O)[C@](C)(Cc1ccccc1F)NC(=O)[C@@H](NC(=O)CNC(=O)[C@H](CCC(N)=O)NC(=O)C(C)(C)NC(=O)[C@@H](N)Cc1ccc(O)cc1)[C@@H](C)O)[C@@H](C)O)C(=O)N[C@@H](CC(C)C)C(=O)N[C@@H](CC(C)C)C(=O)N[C@@H](CC(=O)O)C(=O)N[C@@H](CCC(=O)O)C(=O)N[C@@H](CCCCNC(=O)COCCOCCNC(=O)CC[C@H](NC(=O)CCCCCCCCCCCCCCCCC(=O)O)C(=O)O)C(=O)N[C@@H](CCCCN)C(=O)N[C@@H](CCC(N)=O)C(=O)NC(C)(C)C(=O)N[C@@H](CCC(=O)O)C(=O)N[C@@H](Cc1ccccc1)C(=O)N[C@H](C(=O)N[C@@H](CCC(=O)O)C(=O)N[C@@H](Cc1c[nH]c2ccccc12)C(=O)N[C@@H](CC(C)C)C(=O)N[C@@H](CC(C)C)C(=O)N[C@@H](C)C(=O)NCC(=O)NCC(=O)N1CCC[C@H]1C(=O)N[C@@H](CO)C(=O)N[C@@H](CO)C(=O)NCC(=O)N[C@@H](C)C(=O)N1CCC[C@H]1C(=O)N1CCC[C@H]1C(=O)N1CCC[C@H]1C(=O)N[C@@H](CO)C(N)=O)[C@@H](C)CC [HEC-PT129] | 140 pM | 525 pM | 43.9 pM
CC[C@H](C)[C@H](NC(=O)[C@H](Cc1ccccc1)NC(=O)[C@H](CCC(=O)O)NC(=O)[C@H](CCCNC(=N)N)NC(=O)[C@H](C)NC(=O)[C@H](CCCNC(=N)N)NC(=O)[C@H](CCCCNC(=O)COCCOCCNC(=O)CC[C@H](NC(=O)CCCCCCCCCCCCCCCCCCC(=O)O)C(=O)O)NC(=O)[C@H](CCC(=O)O)NC(=O)[C@H](CC(=O)O)NC(=O)[C@H](CC(C)C)NC(=O)[C@H](CC(C)C)NC(=O)[C@@H](NC(=O)[C@H](CO)NC(=O)[C@H](Cc1ccc(O)cc1)NC(=O)[C@H](CC(=O)O)NC(=O)[C@H](CO)NC(=O)[C@@H](NC(=O)[C@](C)(Cc1ccccc1F)NC(=O)[C@@H](NC(=O)CNC(=O)[C@H](Cc1c[nH]cn1)NC(=O)C(C)(C)NC(=O)[C@@H](N)Cc1ccc(O)cc1)[C@@H](C)O)[C@@H](C)O)[C@@H](C)CC)C(=O)N[C@@H](CCC(=O)O)C(=O)N[C@@H](Cc1c[nH]c2ccccc12)C(=O)N[C@@H](CC(C)C)C(=O)N[C@@H](CC(C)C)C(=O)N[C@@H](CCC(=O)O)C(=O)NCC(=O)NCC(=O)N1CCC[C@H]1C(=O)N[C@@H](CO)C(=O)N[C@@H](CO)C(=O)NCC(=O)N[C@@H](C)C(=O)N1CCC[C@H]1C(=O)N1CCC[C@H]1C(=O)N1CCC[C@H]1C(=O)N[C@@H](CO)C(=O)O [HEC-PT89] | 172 pM | 41.9 pM | 214 pM
CC[C@H](C)[C@H](NC(=O)[C@H](Cc1ccccc1)NC(=O)[C@H](C)NC(=O)[C@H](CCC(N)=O)NC(=O)[C@H](CCC(N)=O)NC(=O)[C@H](CCCNC(=N)N)NC(=O)[C@@H](NC(=O)[C@H](CCCCN)NC(=O)[C@H](CC(=O)O)NC(=O)[C@H](CCCCNC(=O)COCCOCCNC(=O)CC[C@H](NC(=O)CCCCCCCCCCCCCCCCC(=O)O)C(=O)O)NC(=O)[C@H](CC(C)C)NC(=O)[C@@H](NC(=O)[C@H](CO)NC(=O)[C@H](Cc1ccc(O)cc1)NC(=O)[C@H](CC(=O)O)NC(=O)[C@H](CO)NC(=O)[C@@H](NC(=O)[C@](C)(Cc1ccccc1F)NC(=O)[C@@H](NC(=O)CNC(=O)[C@H](CCC(N)=O)NC(=O)C(C)(C)NC(=O)[C@@H](N)Cc1ccc(O)cc1)[C@@H](C)O)[C@@H](C)O)[C@@H](C)CC)[C@@H](C)CC)C(=O)N[C@@H](CCC(=O)O)C(=O)N[C@@H](Cc1ccc(O)cc1)C(=O)N[C@@H](CC(C)C)C(=O)N[C@@H](CC(C)C)C(=O)N[C@@H](CCC(=O)O)C(=O)NCC(=O)NCC(=O)N1CCC[C@H]1C(=O)N[C@@H](CO)C(=O)N[C@@H](CO)C(=O)NCC(=O)N[C@@H](C)C(=O)N1CCC[C@H]1C(=O)N1CCC[C@H]1C(=O)N1CCC[C@H]1C(=O)N[C@@H](CO)C(N)=O [HEC-PT143] (H-Y[Aib]QGT[αMePhe(2-F)]TSDYSILK([AEEA-γGlu-C18 diacid])DKIRQQAFIEYLLEGGPSSGAPPPS-NH2) | 140 pM | 173 pM | 63 pM
